Values after ≈ are worked out from the molar mass of the structure shown. Read-outs that look alike come from different tables or passages of the source.
Assays:
Assay in all cases: MIC, serial dilution on Iso-Sensitest agar
Type in all cases: cell-based
E. coli Neumann = conditions: Escherichia coli
Procedure: (§1) The minimum inhibitory concentrations (MIC) were determined on Iso-Sensitest agar (Oxoid) using the serial dilution method. For each test substance, a series of agar plates was prepared which contained concentrations of the active compound which decreased as the dilution was doubled. The agar plates were inoculated using a multipoint inoculator (Denley). The inocula used were overnight cultures of the pathogens which had previously been diluted to such an extent that each inoculation point contained approx. 10^4 colony-forming units. The inoculated agar plates were incubated at 37° C., and growth of the pathogens was determined after approx. 20 hours. The MIC value (μg/ml) indicates the lowest concentration of active compound where no growth was discernible to the naked eye.
(§2) The table below lists the MIC values of some of the compounds according to the invention compared with ciprofloxacin.

[1] = tested on: Enterococcus faecalis 27101
Procedure: as §1, §2

[2] = tested on: Enterococcus faecalis 9790
Procedure: as §1, §2

[3] = tested on: Staphylococcus aureus 133
Procedure: as §1, §2

[4] = tested on: Staphylococcus aureus 1756
Procedure: as §1, §2

[5] = tested on: Staphylococcus aureus ICB 25701
Procedure: as §1, §2

[6] = tested on: Acinetobacter calcoaceticus 14068
Procedure: as §1, §2

Micrococcus luteus 9341 = tested on: Micrococcus luteus 9341
Procedure: as §1, §2

[7] = E. coli Neumann, approx. 10^4 CFU per inoculation point, 37° C., approx. 20 hours, read-out: MIC
[8] = Enterococcus faecalis 27101, approx. 10^4 CFU per inoculation point, 37° C., approx. 20 hours, read-out: MIC
[9] = Enterococcus faecalis 9790, approx. 10^4 CFU per inoculation point, 37° C., approx. 20 hours, read-out: MIC
[10] = Staphylococcus aureus 133, approx. 10^4 CFU per inoculation point, 37° C., approx. 20 hours, read-out: MIC
[11] = Staphylococcus aureus 1756, approx. 10^4 CFU per inoculation point, 37° C., approx. 20 hours, read-out: MIC
[12] = ICB25701, Staphylococcus aureus ICB 25701, approx. 10^4 CFU per inoculation point, 37° C., approx. 20 hours, read-out: MIC
[13] = Acinetobacter calcoaceticus 14068, approx. 10^4 CFU per inoculation point, 37° C., approx. 20 hours, read-out: MIC
[14] = Micrococcus luteus 9341, approx. 10^4 CFU per inoculation point, 37° C., approx. 20 hours, read-out: MIC

| SMILES | MIC (E. coli Neumann; [7]) | MIC [1, 8] | MIC [2, 9] | MIC [3, 10] | MIC [4, 11] | MIC [5, 12] | MIC [6, 13] | MIC (Micrococcus luteus 9341; [14]) | MIC ([6]; Acinetobacter calcoaceticus, 14068, 20 h) | MIC (E. coli Neumann; 20 h) | MIC ([1]; Enterococcus faecalis, 27101, 20 h) | MIC ([2]; Enterococcus faecalis, 9790, 20 h) | MIC (Micrococcus luteus 9341; Micrococcus luteus, 9341, 20 h) | MIC ([3]; Staphylococcus aureus, 133, 20 h) | MIC ([4]; Staphylococcus aureus, 1756, 20 h) | MIC ([5]; Staphylococcus aureus, ICB25701, 20 h) |
| --- | --- | --- | --- | --- | --- | --- | --- | --- | --- | --- | --- | --- | --- | --- | --- | --- |
| C#Cc1c(N2CC3CC=CC(NC)C3C2)c(F)cc2c(=O)c(C(=O)O)cn(C3CC3)c12 (centres unmarked) [Example 13, 1-cyclopropyl-8-ethinyl-6-fluoro-1,4-dihydro-7-(4-methylamino-1,3,3a,4,7,7a-hexahydroisoindol-2-yl)-4-oxo-3-quinolinecarboxylic acid] | 0.13 µg/mL (≈ 0.308 µM) | 0.13 µg/mL (≈ 0.308 µM) | 0.13 µg/mL (≈ 0.308 µM) | 0.06 µg/mL (≈ 0.142 µM) | 0.06 µg/mL (≈ 0.142 µM) | 0.25 µg/mL (≈ 0.593 µM) | 0.13 µg/mL (≈ 0.308 µM) | 0.25 µg/mL (≈ 0.593 µM) | – | – | – | – | – | – | – | – |
| CC#Cc1c(N2CC3NCCOC3C2)c(F)cc2c(=O)c(C(=O)O)cn(C3CC3)c12 (centres unmarked) [Example 8, 1-cyclopropyl-6-fluoro-1,4-dihydro-7-(2-oxa-5,8-diazabicyclo[4.3.0]non-8-yl)-4-oxo-8-(propin-1-yl)-3-quinolinecarboxylic acid] | 0.25 µg/mL (≈ 0.608 µM) | 0.5 µg/mL (≈ 1.22 µM) | 1 µg/mL (≈ 2.43 µM) | 0.13 µg/mL (≈ 0.316 µM) | 0.13 µg/mL (≈ 0.316 µM) | 4 µg/mL (≈ 9.72 µM) | 0.5 µg/mL (≈ 1.22 µM) | 2 µg/mL (≈ 4.86 µM) | – | – | – | – | – | – | – | – |
| C=C(Cl)c1c(N2CCN(C)CC2)c(F)cc2c(=O)c(C(=O)O)cn(C3CC3)c12.Cl [Example 17, 8-(1-chlorovinyl)-1-cyclopropyl-6-fluoro-1,4-dihydro-7-(4-methyl-1-piperazinyl)-4-oxo-3-quinolinecarboxylic acid hydrochloride] | 0.03 µg/mL | 0.25 µg/mL | 0.25 µg/mL | 0.13 µg/mL | 0.13 µg/mL | 4 µg/mL | 0.03 µg/mL | 1 µg/mL | – | – | – | – | – | – | – | – |
| O=C(O)c1cn(C2CC2)c2cc(N3CCNCC3)c(F)cc2c1=O [Ciprofloxacin, ciprofloxacin, reference compound] | – | – | – | – | – | – | – | – | 0.25 µg/mL (≈ 0.754 µM) | 0.02 µg/mL (≈ 0.0604 µM) | 0.5 µg/mL (≈ 1.51 µM) | 0.5 µg/mL (≈ 1.51 µM) | 2 µg/mL (≈ 6.04 µM) | 0.25 µg/mL (≈ 0.754 µM) | 0.25 µg/mL (≈ 0.754 µM) | 16 µg/mL (≈ 48.3 µM) |
| C#Cc1c(N2CC3NCCOC3C2)c(F)cc2c(=O)c(C(=O)O)cn(C3CC3)c12 (centres unmarked) [Example 7, 1-cyclopropyl-8-ethinyl-6-fluoro-1,4-dihydro-7-(2-oxa-5,8-diazabicyclo[4.3.0]non-8-yl)-4-oxo-3-quinolinecarboxylic acid] | 0.13 µg/mL (≈ 0.327 µM) | 0.25 µg/mL (≈ 0.629 µM) | 0.25 µg/mL (≈ 0.629 µM) | 0.06 µg/mL (≈ 0.151 µM) | 0.06 µg/mL (≈ 0.151 µM) | 1 µg/mL (≈ 2.52 µM) | 0.25 µg/mL (≈ 0.629 µM) | 1 µg/mL (≈ 2.52 µM) | – | – | – | – | – | – | – | – |

The remaining compounds from weak to strong by MIC (E. coli Neumann; [7]), led by results:

| MIC (E. coli Neumann; [7]) | MIC [1, 8] | MIC [2, 9] | MIC [3, 10] | MIC [4, 11] | MIC [5, 12] | MIC [6, 13] | MIC (Micrococcus luteus 9341; [14]) | SMILES | MIC ([6]; Acinetobacter calcoaceticus, 14068, 20 h) | MIC (E. coli Neumann; 20 h) | MIC ([1]; Enterococcus faecalis, 27101, 20 h) | MIC ([2]; Enterococcus faecalis, 9790, 20 h) | MIC (Micrococcus luteus 9341; Micrococcus luteus, 9341, 20 h) | MIC ([3]; Staphylococcus aureus, 133, 20 h) | MIC ([4]; Staphylococcus aureus, 1756, 20 h) | MIC ([5]; Staphylococcus aureus, ICB25701, 20 h) |
| --- | --- | --- | --- | --- | --- | --- | --- | --- | --- | --- | --- | --- | --- | --- | --- | --- |
| 0.02 µg/mL (≈ 0.0541 µM) | 0.25 µg/mL (≈ 0.677 µM) | 0.25 µg/mL (≈ 0.677 µM) | 0.13 µg/mL (≈ 0.352 µM) | 0.13 µg/mL (≈ 0.352 µM) | 4 µg/mL (≈ 10.8 µM) | – | – | C#Cc1c(N2CCN(C)CC2)c(F)cc2c(=O)c(C(=O)O)cn(C3CC3)c12 [Example 1, 1-cyclopropyl-8-ethinyl-6-fluoro-1,4-dihydro-7-(4-methyl-1-piperazinyl)-4-oxo-3-quinolinecarboxylic acid] | – | – | – | – | – | – | – | – |
| 0.02 µg/mL (≈ 0.0506 µM) | 0.13 µg/mL (≈ 0.329 µM) | 0.13 µg/mL (≈ 0.329 µM) | 0.13 µg/mL (≈ 0.329 µM) | 0.03 µg/mL (≈ 0.0759 µM) | 1 µg/mL (≈ 2.53 µM) | 0.03 µg/mL (≈ 0.0759 µM) | 0.5 µg/mL (≈ 1.26 µM) | C#Cc1c(N2C[C@@H]3CCCN[C@@H]3C2)c(F)cc2c(=O)c(C(=O)O)cn(C3CC3)c12 (relative stereo) [Example 5, 1-cyclopropyl-7-(cis-2,8-diazabicyclo[4.3.0]non-8-yl)-8-ethinyl-6-fluoro-1,4-dihydro-4-oxo-3-quinolinecarboxylic acid] | – | – | – | – | – | – | – | – |
| 0.02 µg/mL (≈ 0.0488 µM) | 1 µg/mL (≈ 2.44 µM) | 1 µg/mL (≈ 2.44 µM) | 0.02 µg/mL (≈ 0.0488 µM) | 0.02 µg/mL (≈ 0.0488 µM) | 32 µg/mL (≈ 78.2 µM) | 0.03 µg/mL (≈ 0.0733 µM) | 8 µg/mL (≈ 19.5 µM) | C=C(C)C#Cc1c(N2CCN(C)CC2)c(F)cc2c(=O)c(C(=O)O)cn(C3CC3)c12 [Example 14, 1-cyclopropyl-6-fluoro-1,4-dihydro-8-(3-methyl-but-3-en-1-inyl)-7-(4-methyl-1-piperazinyl)-4-oxo-3-quinolinecarboxylic acid] | – | – | – | – | – | – | – | – |

From patent publication US5468742A, “8-vinyl- and 9-ethinyl-quinolone-carboxylic acids” (Bayer Aktiengesellschaft, priority 1991, dated 1995)
